{"source": "paper PMC5992566", "about": "(Nanomedicine, 2018)", "origin": "cited, not measured here", "settings": "after a single parenteral dose"}
{"compound": "C[C@H]1CO[C@@H]2Cn3cc(C(=O)NCc4ccc(F)cc4F)c(=O)c(O)c3C(=O)N12", "note": "[Cabotegravir, cabotegravir]", "values": [{"measurement": "Half-life", "value": "21 to 50", "unit": "days"}]}
